According to US7638512B2, “Phenylaminopropanol derivatives and methods of their use” (Wyeth, priority 2004, dated 2009):
Structures can show the parent of a compound that is named as a salt.

Target: T1, human hNET (Homo sapiens, UniProt P23975)
T1 construct: expressed in transfected cells
Assay: Norepinephrine (NE) uptake assay
Format: cell-based
Conditions: 1 μM test compound; MDCK-Net6 cells stably transfected with human hNET; [3H]NE uptake
Procedure: MDCK-Net6 cells, stably transfected with human hNET (Pacholczyk, T., R. D. Blakely, and S. G. Amara, Nature, 1991, 350(6316): p. 350-4) were cultured in growth medium containing high glucose DMEM (Gibco, Cat. No. 11995), 10% FBS (dialyzed, heat-inactivated, US Bio-Technologies, Lot FBD1129HI) and 500 µg/ml G418 (Gibco, Cat. No. 10131). Cells were plated at 300,000/T75 flask and cells were split twice weekly. The JAR cell line (human placental choriocarcinoma) was purchased from ATCC (Cat. No. HTB-144). The cells were cultured in growth medium containing RPMI 1640 (Gibco, Cat. No. 72400), 10% FBS (Irvine, Cat. No. 3000), 1% sodium pyruvate (Gibco, Cat. No. 1136) and 0.25% glucose. Cells were plated at 250,000 cells/T75 flask and split twice weekly. For all assays, cells were plated in Wallac 96-well sterile plates (PerkinElmer, Cat. No. 3983498).
On day 1, cells were plated at 3,000 cells/well in growth medium and maintained in a cell incubator (37° C., 5% CO2). On day 2, growth medium was replaced with 200 μl of assay buffer (25 mM HEPES; 120 mM NaCl; 5 mM KCl; 2.5 mM CaCl2; 1.2 mM MgSO4; 2 mg/ml glucose (pH 7.4, 37° C.)) containing 0.2 mg/ml ascorbic acid and 10 μM pargyline. Plates containing cells with 200 μl of assay buffer were equilibrated for 10 minutes at 37° C. prior to addition of compounds. A stock solution of desipramine was prepared in DMSO (10 mM) and delivered to triplicate wells containing cells for a final test concentration of 1 μM. Data from these wells were used to define non-specific NE uptake (minimum NE uptake). Test compounds were prepared in DMSO (10 mM) and diluted in assay buffer according to test range (1 to 10,000 nM). Twenty-five microliters of assay buffer (maximum NE uptake) or test compound were added directly to triplicate wells containing cells in 200 μl of assay buffer. The cells in assay buffer with test compounds were incubated for 20 minutes at 37° C. To initiate the NE uptake, [^3H]NE diluted in assay buffer (120 nM final assay concentration) was delivered in 25 μl aliquots to each well and the plates were incubated for 5 minutes (37° C.). The reaction was terminated by decanting the supernatant from the plate. The plates containing cells were washed twice with 200 μl assay buffer (37° C.) to remove free radioligand. The plates were then inverted, left to dry for 2 minutes, then reinverted and air-dried for an additional 10 minutes. The cells were lysed in 25 μl of 0.25 N NaOH solution (4° C.), placed on a shake table and vigorously shaken for 5 minutes. After cell lysis, 75 μl of scintillation cocktail was added to each well and the plates were sealed with film tape. The plates were returned to the shake table and vigorously shaken for a minimum of 10 minutes to ensure adequate partitioning of organic and aqueous solutions. The plates were counted in a Wallac Microbeta counter (PerkinElmer) to collect the raw cpm data.
For each experiment, a data stream of cpm values collected from the Wallac Microbeta counter was downloaded to a Microsoft Excel statistical application program. Calculations of EC50 values were made using the transformed-both-sides logistic dose response program written by Wyeth Biometrics Department. The statistical program uses mean cpm values from wells representing maximum binding or uptake (assay buffer) and mean cpm values from wells representing minimum binding or uptake ((1 μM desipramine (hNET) or 1 μM paroxetine (hSERT)). Estimation of the EC50 value was completed on a log scale and the line was fit between the maximum and minimum binding or uptake values. All graphic data representation was generated by normalizing each data point to a mean percent based on the maximum and minimum binding or uptake values. The EC50 values reported from multiple experiments were calculated by pooling the raw data from each experiment and analyzing the pooled data as one experiment.

T1 sequence (P23975 whole entry): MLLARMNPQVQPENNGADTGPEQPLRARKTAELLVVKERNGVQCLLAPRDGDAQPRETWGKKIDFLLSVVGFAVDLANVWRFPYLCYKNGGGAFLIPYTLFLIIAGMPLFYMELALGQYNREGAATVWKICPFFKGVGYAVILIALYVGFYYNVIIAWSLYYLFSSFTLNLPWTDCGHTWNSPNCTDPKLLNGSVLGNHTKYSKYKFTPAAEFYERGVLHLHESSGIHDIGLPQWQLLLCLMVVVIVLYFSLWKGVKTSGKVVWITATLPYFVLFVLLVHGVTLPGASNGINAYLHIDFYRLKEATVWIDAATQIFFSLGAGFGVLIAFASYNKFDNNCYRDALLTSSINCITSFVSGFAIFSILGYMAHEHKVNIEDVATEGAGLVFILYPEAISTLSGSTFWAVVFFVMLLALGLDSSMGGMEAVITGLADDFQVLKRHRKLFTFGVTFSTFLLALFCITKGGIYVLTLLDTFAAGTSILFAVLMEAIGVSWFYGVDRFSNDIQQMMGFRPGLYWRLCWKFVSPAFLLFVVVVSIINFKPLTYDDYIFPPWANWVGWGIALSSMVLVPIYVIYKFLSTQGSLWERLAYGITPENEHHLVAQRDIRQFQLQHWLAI

`CNC[C@@H](O)[C@H](c1ccccc1)N1CCOc2ccccc21` (racemic) [Example 2, (1RS,2SR)-1-(2,3-dihydro-4H-1,4-benzoxazin-4-yl)-3-(methylamino)-1-phenylpropan-2-ol dihydrochloride] was tested, and the inhibition at 1 µM was 33.7%.

With `CNC[C@@H](O)[C@H](c1ccccc1)N1CCOc2ccc(C)cc21` (racemic) [Example 12, (1RS,2SR)-3-(methylamino)-1-(6-methyl-2,3-dihydro-4H-1,4-benzoxazin-4-yl)-1-phenylpropan-2-ol hydrochloride] the inhibition at 1 µM was 3.4%.

With `CNC[C@@H](O)[C@H](c1cccc(F)c1)N1C[C@H](c2ccccc2)Oc2ccccc21` (single isomer, unassigned) [Example 21, hydrochloride] the inhibition at 1 µM was 51.7%.

`CNC[C@@H](O)[C@H](c1cccc(F)c1)N1CC(c2ccccc2)Oc2ccccc21` (stereo partly drawn) [Example 19, (1S,2R)-1-(3-fluorophenyl)-3-(methylamino)-1-(2-phenyl-2,3-dihydro-4H-1,4-benzoxazin-4-yl)propan-2-ol hydrochloride] was tested, and the inhibition at 1 µM was 95%.

Work on `CNC[C@@H](O)[C@H](c1ccccc1)N1CC(C)(C)Oc2ccccc21` [Example 17, (1S,2R)-1-(2,2-dimethyl-2,3-dihydro-4H-1,4-benzoxazin-4-yl)-3-(methylamino)-1-phenylpropan-2-ol hydrochloride] yielded an inhibition at 1 µM of 9.3%.

`CNC[C@@H](O)[C@H](c1cc(F)cc(F)c1)N1CCOc2ccc(Cl)cc21` [Example 8, (1S,2R)-1-(6-chloro-2,3-dihydro-4H-1,4-benzoxazin-4-yl)-1-(3,5-difluorophenyl)-3-(methylamino)propan-2-ol hydrochloride] gave an inhibition at 1 µM of 12.5%.

`CNC[C@@H](O)[C@H](c1cccc(F)c1)N1CC(C)Oc2ccccc21` (stereo partly drawn) [Example 9, (1S,2R)-1-(3-fluorophenyl)-3-(methylamino)-1-(2-methyl-2,3-dihydro-4H-1,4-benzoxazin-4-yl)propan-2-ol hydrochloride] was tested, and the inhibition at 1 µM was 53.9%.

`CNC[C@@H](O)[C@H](c1ccccc1)N1CCN(C)c2ccccc21` (racemic) [Example 4, (1SR,2RS)-3-(methylamino)-1-(4-methyl-3,4-dihydroquinoxalin-1(2H)-yl)-1-phenylpropan-2-ol hydrochloride] was tested, and the inhibition at 1 µM was 46.2%.

`CNC[C@@H](O)[C@H](c1cccc(F)c1)N1CCOc2ccc(Cl)cc21` [Example 15, (1S,2R)-1-(6-chloro-2,3-dihydro-4H-1,4-benzoxazin-4-yl)-1-(3-fluorophenyl)-3-(methylamino)propan-2-ol hydrochloride] gave an inhibition at 1 µM of 41.4%.

Work on `CNC[C@@H](O)[C@H](c1cccc(F)c1)N1C[C@@H](c2ccccc2)Oc2ccccc21` (single isomer, unassigned) [Example 20, hydrochloride] yielded an inhibition at 1 µM of 97.2%.

With `CNC[C@@H](O)[C@H](c1cccc(F)c1)N1CC(C)(C)Oc2ccccc21` [Example 16, (1S,2R)-1-(2,2-dimethyl-2,3-dihydro-4H-1,4-benzoxazin-4-yl)-1-(3-fluorophenyl)-3-(methylamino)propan-2-ol hydrochloride] the inhibition at 1 µM was 10%.

`CNC[C@@H](O)[C@H](c1ccccc1)N1CCOc2ccc(Cl)cc21` (single isomer, unassigned) [Example 13, hydrochloride] was tested, and the inhibition at 1 µM was 38.6%.

With `CNC[C@@H](O)[C@H](c1cccc(F)c1)N1CCSc2ccccc21` [Example 18, (1S,2R)-1-(2,3-dihydro-4H-1,4-benzothiazin-4-yl)-1-(3-fluorophenyl)-3-(methylamino)propan-2-ol hydrochloride] the inhibition at 1 µM was 90.4%.

`CNC[C@@H](O)[C@H](c1ccccc1)N1CCOc2ccc(Cl)cc21` (racemic) [Example 11, (1RS,2SR)-1-(6-chloro-2,3-dihydro-4H-1,4-benzoxazin-4-yl)-3-(methylamino)-1-phenylpropan-2-ol hydrochloride] showed an inhibition at 1 µM of 60.6%.

In the case of `CNC[C@H](O)[C@@H](c1ccccc1)N1CCOc2ccc(Cl)cc21` (single isomer, unassigned) [Example 14, hydrochloride], the inhibition at 1 µM is reported as 41.5%.

`CNC[C@@H](O)[C@H](c1ccccc1)N1CCN(CC(F)(F)F)c2ccccc21` (racemic) [Example 5, (1SR,2RS)-3-(methylamino)-1-phenyl-1-[4-(2,2,2-trifluoroethyl)-3,4-dihydroquinoxalin-1(2H)-yl]propan-2-ol hydrochloride] showed an inhibition at 1 µM of 52.9%.
